In paper PMC10347458 (Leukemia, 2023):
In brackets after ≈: the same amount, converted by molar mass. Like-named read-outs stand apart in the source and are kept apart here.

Tests used:
human T-ALL samples = test: Ex vivo leukemia sensitivity; format: cell-based
[1] = tested on: LCK-activated T-ALL PDX models; test: In vivo evaluation of ponatinib efficacy in T-ALL PDXs; parameters: species or system NSG mice; settings: 30 mg/kg once daily oral, three T-ALL PDX models, blast % in peripheral blood
[2] = format: in vivo, NSG mice; settings: for AUC(0-inf) / CL/F / Cmax / Tmax / half-life / AUC(0-t): NSG, mouse, in vivo, po; for AUC(0-t): AUC0–24hrs
[3] = molecular target: pLCK (phosphorylated LCK) (Homo sapiens, UniProt P06239); test: PD: pLCK; format: in vivo; settings: for Median duration of pLCK/LCK <50% (10th-90th percentile): mice (Table 2)
LCK (T316I) in KOPT-K1-R = LCK (T316I) in KOPT-K1-R (Homo sapiens, UniProt P06239, T316I); settings: 100nM, 3 hrs treatment
pCRKL = settings: chronic myeloid leukemia (CML) patients; cited from earlier work

Sequence of pLCK (phosphorylated LCK) (P06239 whole entry): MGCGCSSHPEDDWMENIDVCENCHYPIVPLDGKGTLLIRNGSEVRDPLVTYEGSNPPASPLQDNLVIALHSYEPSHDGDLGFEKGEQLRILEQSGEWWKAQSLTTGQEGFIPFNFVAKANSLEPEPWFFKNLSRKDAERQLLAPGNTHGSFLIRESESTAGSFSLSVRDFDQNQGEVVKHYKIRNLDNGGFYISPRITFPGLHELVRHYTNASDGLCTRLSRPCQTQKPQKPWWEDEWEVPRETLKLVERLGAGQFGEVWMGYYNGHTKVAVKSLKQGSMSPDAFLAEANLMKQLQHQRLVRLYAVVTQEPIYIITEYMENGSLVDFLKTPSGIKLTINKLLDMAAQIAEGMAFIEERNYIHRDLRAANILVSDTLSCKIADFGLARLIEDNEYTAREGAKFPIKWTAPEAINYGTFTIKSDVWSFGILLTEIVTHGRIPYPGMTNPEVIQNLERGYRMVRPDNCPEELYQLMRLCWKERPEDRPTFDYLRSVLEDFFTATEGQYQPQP
Sequence of LCK (T316I) in KOPT-K1-R (P06239 whole entry T316I): as the sequence (P06239 whole entry) above, with T316I counted along it

Cc1ccc(C(=O)Nc2ccc(CN3CCN(C)CC3)c(C(F)(F)F)c2)cc1C#Cc1cnc2cccnn12 [ponatinib]
LC50 compared with that of dasatinib (human T-ALL samples; 51 samples with both drugs tested, P =0.0038, Wilcoxon matched-pairs signed rank test): significantly lower
CC50 (human T-ALL samples; Homo sapiens, read-out: Median LC50): 433 nM
Samples classified as sensitive to ponatinib (LC50 cutoff 90nM) (human T-ALL samples; all 52 T-ALL cases (n=17)): 32.7%
Leukemia growth in mice vs vehicle control [1]: significantly inhibited leukemia growth
AUC(0-inf) ([2]; 15 mg/kg): 1530 ng·h/mL
CL/F ([2]; 15 mg/kg): 163 mL/min/kg
Cmax ([2]; 15 mg/kg): 181 ng/mL
Tmax ([2]; 15 mg/kg): 3.04 h
half-life ([2]; 15 mg/kg): 1.92 h
AUC(0-t) ([2]; 15 mg/kg, ponatinib 15 mg (15 mg/kg) single oral dose, NSG mice, median (5th-95th percentile)): 1530 ng·h/mL
AUC(0-inf) ([2]; 30 mg/kg): 3010 ng·h/mL
CL/F ([2]; 30 mg/kg): 166 mL/min/kg
Cmax ([2]; 30 mg/kg): 356 ng/mL
Tmax ([2]; 30 mg/kg): 3.08 h
half-life ([2]; 30 mg/kg): 1.92 h
AUC(0-t) ([2]; 30 mg/kg, ponatinib 30 mg (30 mg/kg) single oral dose, NSG mice, median (5th-95th percentile)): 3000 ng·h/mL
AUC0–24hrs ([2]; ponatinib 30 mg (30 mg/kg) single oral dose, NSG mice, median (5th-95th percentile)): 2996.56 (2707.46–3351.17) ng hr/mL
EC90 ([3]; po, read-out: EC90 (CV%)): 0.063 µg/mL (≈ 0.118 µM)
Median duration of pLCK/LCK <50% (10th-90th percentile) ([3]; ponatinib 15 mg/kg oral): 15 mg/kg 10.5 (0, 24.0) hrs/day
Median duration of pLCK/LCK <50% (10th-90th percentile) ([3]; ponatinib 30 mg/kg oral): 30 mg/kg 14.8 (0, 24.0) hrs/day
Block of LCK phosphorylation (LCK (T316I) in KOPT-K1-R): around 50%

Cc1nc(Nc2ncc(C(=O)Nc3c(C)cccc3Cl)s2)cc(N2CCN(CCO)CC2)n1 [dasatinib]
Dasatinib sensitivity (LC50 <80nM) observed (human T-ALL samples; adult T-ALL): 9.1%
Dasatinib sensitivity (LC50 <80nM) observed (human T-ALL samples; pediatric T-ALL): 47.5%
AUC(0-inf) ([2]; 20 mg/kg): 500 ng·h/mL
CL/F ([2]; 20 mg/kg): 667 mL/min/kg
Cmax ([2]; 20 mg/kg): 102 ng/mL
Tmax ([2]; 20 mg/kg): 1.17 h
half-life ([2]; 20 mg/kg): 0.35 h
AUC(0-inf) ([2]; 40 mg/kg): 1950 ng·h/mL
CL/F ([2]; 40 mg/kg): 341 mL/min/kg
Cmax ([2]; 40 mg/kg): 366 ng/mL
Tmax ([2]; 40 mg/kg): 1.17 h
half-life ([2]; 40 mg/kg): 0.34 h
AUC(0-t) ([2]; 40 mg/kg): 1940 ng·h/mL
Time above 50% pCRKL inhibition considered sufficient to elicit a clinical response (pCRKL): 12.8 hrs per day
